Read-outs that look alike come from different tables or passages of the source.
Legend:
PK analysis in mice = type: in vivo, male CD mice; details: oral 100 mg/kg, detection limit 2.5 ng/mL
Experimental: All studies were conducted after review by the Institutional Animal Care and Use Committee at GlaxoSmithKline (GSK) and in accordance with the GSK Policy on the Care, Welfare and Treatment of Laboratory Animals.

cancer cell lines = assay: Lactate production assay, panel of cancer cell lines; details: Homo sapiens, read-out: lactate production EC50 across cell lines
Snu398 cells [1] = assay: Cell proliferation and survival, Snu398 (trypan blue, Vi-Cell); type: cell-based, human
Experimental: Sixty thousand Snu398 cells per well were plated in 6-well tissue culture plates in RPMI-1640 medium supplemented with 2.5% charcoal-stripped FBS (Life Technologies). Cells were allowed to attach overnight and then DMSO control or the indicated doses of LDHA inhibitor dissolved in DMSO were added directly to the wells. After 4 to 8 days of incubation in the indicated oxygen conditions, adherent cells were trypsinized, counted, and had their viability assessed by the trypan-blue exclusion method using the Vi-Cell XR Cell Viability Analyzer (Beckman Coulter, Brea, CA, USA). The same procedure was carried out for HepG2 cells, except non-charcoal-stripped FBS was used. For PARP cleavage analysis, both floating and adherent cells were collected after 24 h and the whole-cell extracts were prepared in radioimmunoprecipitation assay (RIPA) buffer (Sigma-Aldrich) supplemented with protease and phosphatase inhibitor cocktails (Sigma-Aldrich). Solubilized proteins were separated by SDS-PAGE, transferred onto nitrocellulose membrane, and detected with each specific antibody.

[2] = human plasma protein binding by equilibrium dialysis; type: in vitro ADME
[3] = tested on: permeabilized HepG2 cells; assay: Seahorse XF96 permeabilized cells (mitochondrial function); type: cell-based, human
Experimental: HepG2 cells were seeded overnight in DMEM, 10% FBS, at 16,000 cells/well in an XF96 V3 PET plate. The next day, the medium was removed, and the wells were rinsed and filled with mitochondrial assay solution (MAS: 70 mM sucrose, 220 mM mannitol, 10 mM KH2PO4, 5 mM MgCl2, 2 mM HEPES, 1.0 mM EGTA) containing 10 mM pyruvate/10 mM malate/4 mM ADP and 2 nM XF Plasma Membrane Permeabilizer (PMP) (Seahorse Biosciences). […]. OCR and ECAR readings were determined for three cycles (two minutes mixing, two minutes measuring) after each compound addition.

[4] = rat plasma protein equilibrium dialysis assay; type: in vitro ADME; details: read-out: rat plasma protein binding (converted)
Snu398 cells [5] = assay: Oxygen consumption and extracellular acidification rates, Snu398 (Seahorse); type: cell-based; details: Homo sapiens, SNU-398, 92 min, Snu398, 92 minutes after addition
Experimental: (§1) One hundred twenty thousand Snu398 or HepG2 human hepatocellular carcinoma cells per well were plated in XF24 PS or XF96 PET cell culture microplates (Seahorse Biosciences, North Billerica, MA, USA) and allowed to attach and proliferate for 18 h. Cells were equilibrated with DMEM lacking bicarbonate (Seahorse Biosciences) supplemented with glucose at 37°C for 1 h in an incubator lacking CO2. The rate of change of dissolved O2 (oxygen consumption rate, OCR) and rate of change of pH (extracellular acidification rate, ECAR) in medium immediately surrounding the cells was measured in the XF24 Analyzer (Seahorse Biosciences) per manufacturer’s instructions. Compound doses were injected into the wells at the indicated times. For dose response curves, the OCR and ECAR levels obtained in each well before compound addition were subtracted from the values obtained 92 minutes after compound addition.

HepG2 cells = assay: Oxygen consumption and extracellular acidification rates, HepG2 (Seahorse); type: cell-based, human; details: for EC50: Homo sapiens, 92 min, HepG2, 92 minutes after addition
Experimental: as §1
For XF96 experiments breast cancer cells were seeded in DMEM without bicarbonate at 16,000/well in XF96 V3 PET plates (Seahorse Biosciences) coated with CellTak (BD Biosciences, San Jose, CA, USA). […] HepG2 cells were seeded at 16K/well in XF96 V3 PET plates and left overnight for attachment. The medium was exchanged with DMEM without bicarbonate prior to readings on the XF96 Analyzer (Seahorse Biosciences).

recombinant human LDHA [6] = target: T1, recombinant human LDHA (Homo sapiens, UniProt P00338); assay: LDHA enzymatic assay with increasing levels of NADH; type: biochemical; details: NADH 120 μM; read-out: LDHA IC50 at high NADH
Experimental: LDHA enzymatic assay with increasing levels of NADH The following reaction was assembled in clear-bottom 96 well plate: 50 mM phosphate buffer pH 7.0, 50 mM NaCl, 0.25 mM CHAPS, 200 µM NaPyruvate, 250 pM recombinant human LDHA, and the indicated amounts of NADH and Compound 2. Absorbance change due to NADH conversion to NAD^+ was read on SpectraMax M2 (Molecular Devices, Sunnyvale, CA) at 340 nm every 40 sec for 6 min.

recombinant human LDHA [7] = target: T1, recombinant human LDHA; assay: recombinant human LDHA enzyme assay (lactate to pyruvate, NADH via diaphorase/resazurin)
recombinant human LDHB = recombinant human LDHB (Homo sapiens, UniProt P07195); assay: recombinant human LDHB enzyme assay (lactate to pyruvate, NADH via diaphorase/resazurin)
Chain of recombinant human LDHB (P07195 whole entry): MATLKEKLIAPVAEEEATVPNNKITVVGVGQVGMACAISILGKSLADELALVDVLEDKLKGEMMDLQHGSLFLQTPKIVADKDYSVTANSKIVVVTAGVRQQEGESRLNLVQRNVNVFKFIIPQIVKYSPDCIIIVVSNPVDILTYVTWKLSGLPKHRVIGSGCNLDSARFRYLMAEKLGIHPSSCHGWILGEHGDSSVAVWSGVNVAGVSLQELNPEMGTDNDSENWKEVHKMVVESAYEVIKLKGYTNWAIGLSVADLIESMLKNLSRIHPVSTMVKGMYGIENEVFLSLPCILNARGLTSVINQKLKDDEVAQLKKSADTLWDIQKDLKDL

| SMILES | blood compound level (PK analysis in mice) [ng/mL] | EC50 (cancer cell lines) [nM] | EC50 (Snu398 cells [1]; Homo sapiens, SNU-398, Snu398, 4 to 8 days, read-out: viable cell number EC50) [nM] | dose sufficient to induce cell death (Snu398 cells [1]; Snu398, with FK866) [µM] | fraction unbound [2] | concentrations with no changes in OCR or ECAR ([3]; permeabilized HepG2, pyruvate/malate/ADP) | doses with direct mitochondrial effects (reduced mitochondrial respiration) ([3]; permeabilized HepG2, decreased OCR, increased ECAR) [µM] | fraction unbound [4] | EC50 (Snu398 cells [5]; read-out: ECAR change EC50) [nM] | EC50 (Snu398 cells [5]; read-out: OCR change EC50) [nM] | oligomycin-dependent OCR (OCROLG) (HepG2 cells; 10 μM) | oligomycin-dependent OCR (OCROLG) (HepG2 cells; 1 to 3 μM, glucose/glutamine medium) | EC50 (HepG2 cells; read-out: ECAR change EC50) [nM] | EC50 (HepG2 cells; read-out: OCR change EC50) [nM] | IC50 (recombinant human LDHA [6]) [nM] | IC50 (recombinant human LDHA [7]) [nM] | IC50 (recombinant human LDHB) [nM] |
| --- | --- | --- | --- | --- | --- | --- | --- | --- | --- | --- | --- | --- | --- | --- | --- | --- | --- |
| COc1ncc(-c2ccc3c(Nc4cc(Oc5cc(F)cc(F)c5)cc(C(=O)O)c4)c(S(=O)(=O)NC4CC4)cnc3c2)c(OC)n1 [Compound 1] | ≤ 2.5 | ≥ 400 | 2900 ± 600 | 3 | 0.013 | up to 3 μM | ≥ 10 | 0.012 | 600 ± 200 | 500 ± 300 | OCROLG was reduced | increased oligomycin-dependent OCR | 600 ± 100 | 900 ± 300 | – | – | – |
| COc1ncc(-c2ccc3c(Nc4cc(C(=O)O)cc(C5CCCC5)c4)c(S(=O)(=O)NC4CC4)cnc3c2)c(OC)n1 [Compound 2] | – | – | – | – | – | – | – | – | – | – | – | – | – | – | 67 | 16 ± 7 | 220 ± 20 |

— paper PMC4178217, “Quinoline 3-sulfonamides inhibit lactate dehydrogenase A and reverse aerobic glycolysis in cancer cells” (Cancer & Metabolism, 2013)
